The record followed here is patent publication US10993999B2, “Materials and methods for producing improved lentiviral vector particles” (IMMUNE DESIGN CORP., priority 2012, dated 2021).

The subject of this assay is Human PBMCs (DCs, B-cells, T-cells). Kind of assay: Transduction specificity in GM-CSF/IL-4 treated human PBMC culture. The note with it: all cell populations.

Turning to `Cc1ccnc2c1NC(=O)c1cccnc1N2C1CC1` [Nevirapine], the “effect of RT inhibitor on transduction” value is given as “completely ablated”.
